This passage reports melting point results from patent publication US7592332B2, “Cytokine inhibitors” (Boehringer Ingelheim Pharmaceuticals, Inc., priority 2004, dated 2009).

Where a name gives a salt, the structure may show the parent alone.

As to `COc1cnc(C(C)(C)C)cc1NC(=O)c1cc2cccc(Oc3ccnc(N4CCN(C)CC4)n3)c2n1C` (as salt: salt) [Example 2, 1-methyl-7-[2-(4-methyl-piperazin-1-yl)-pyrimidin-4-yloxy]-1H-indole-2-carboxylic acid (2-tert-butyl-5-methoxy-pyridin-4-yl)-amide], the melting point was 72 to 74 °C (dec.).

As to `Cn1c(C(=O)Nc2cc(C(C)(C)C)ccc2[S+](C)[O-])cc2cccc(Oc3ccncc3)c21` (stereo not drawn) [Example 3, 1-methyl-7-(pyridine-4-yloxy)-1H-indole-2-carboxylic acid (5-tert-butyl-2-methanesulfinyl-phenyl)-amide], the melting point is 88 to 92 °C (dec.).

As for `Cn1c(C(=O)Nc2cc(C(C)(C)C)ccc2S(C)(=O)=O)cc2cccc(Oc3ccncc3)c21` [Example 4, 1-methyl-7-(pyridine-4-yloxy)-1H-indole-2-carboxylic acid (5-tert-butyl-2-methanesulfonyl-phenyl)-amide], the melting point is 158 to 159 °C (dec.).

In the case of `Cn1c(C(=O)Nc2cc(C(C)(C)C)c[nH]c2=O)cc2cccc(Oc3ccncc3)c21` [Example 5, 1-methyl-7-(pyridine-4-yloxy)-1H-indole-2-carboxylic acid (5-tert-butyl-2-oxo-1,2-dihydropyridin-3-yl)-amide], the melting point is 236 to 238 °C (dec.).

For `Cn1cc(C(C)(C)C)cc(NC(=O)c2cc3cccc(Oc4ccncc4)c3n2C)c1=O` [Example 6, 1-methyl-7-(pyridine-4-yloxy)-1H-indole-2-carboxylic acid (5-tert-butyl-1-methyl-2-oxo-1,2-dihydropyridin-3-yl)-amide], the melting point was 74 to 76 °C (dec.).

As to `Cc1ncc(C(C)(C)C)cc1NC(=O)c1cc2cccc(Oc3ccncc3)c2n1C` [Example 7, 1-methyl-7-(pyridine-4-yloxy)-1H-indole-2-carboxylic acid (5-tert-butyl-2-methyl-pyridin-3-yl)-amide], the melting point was 52 to 56 °C (dec.).
